# Source: patent US20090227617A1, “Esters Of Glucuronide Prodrugs Of Anthracyclines And Method Of Preparation And Use In Tumor-Selective Chemotherapy” (Pharmachemie B.V., priority 2008, published 2009)
# Read-outs that look alike come from different tables or passages of the source.
# Key:
# tumor bearing mice = details: based on 10% weight loss, i.v.; cited from earlier work
# OVCAR-3 cells = assay: In vitro antiproliferative effects in OVCAR-3 cells (crystal violet assay), with or without bovine beta-glucuronidase (GUS); assay type: cell-based, human; details: for IC50: 3 days incubation; for toxicity compared with doxorubicin: in the presence of GUS
# Experimental: The toxicity of the prodrugs was tested with OVCAR-3 cells. The cells were incubated for 3 days with the different prodrugs DOX-alGA3, DOX-mPEG4-GA3, DOX-mPEG7-GA3, and for comparison also with Doxorubicin, in fetal bovine serum (FBS), in the presence or absence of bovine beta-glucuronidase (GUS).
# The concentrations used for the prodrugs ranged from 0.001 μM to 50 μM.
# In vitro antiproliferative effects in OVCAR-3 cells after 3 days of incubation with the different (pro)-drugs DOX, DOX-alGA3, DOX-mPEG4-GA3 and DOX-mPEG7-GA3 in the presence or absence of bovine beta-glucuronidase(GUS).
# The concentrations used for the prodrugs ranged from 0.001 μM to 50 μM, the GUS enzyme was added to give a final concentration of 10 units/μl. Adjacent to this, cells treated with the prodrugs were incubated without GUS. Incubation was conducted at 37° C. in a humidified, 5% CO2 incubator of three days. Cell growth is measured by crystal violet assay, untreated cells are set at 100%. The IC50 values found in these experiments are depicted in the table beneath.
# The human ovarian cancer (OVCAR3) cell line was maintained in DMEM supplemented with 10% heat inactivated FBS and 1% P/S. Inhibition of proliferation of the OVCAR cell line by the doxorubicin prodrugs Dox-allyl, Dox-mGA3, Dox-mPEG4 and Dox-mPEG7 was determined using a crystal violet assay. The assay was preformed in a 96-wells plate. Cells that were harvested by trypsinisation were seeded with 5.000 cells in 100 μl medium per well. The 96-wells plate was incubated overnight at 37° C. in a humidified, 5% CO2 incubator. The different prodrugs were added in concentrations between 0.001 μM to 50 μM. Subsequently, the GUS enzyme was added to give a final concentration of 10 units/μl. This mixture was incubated at 37° C. in a humidified, 5% CO2 incubator for tree days. Subsequently, the cells were stained and fixed with 50 μl 1% crystal violet in 70% ethanol. The cells were washed with water and resolubilized in 100 μl 1% SDS. After this the absorbance was read at 550 nm. The blank extinction values were determined on wells in which no cells were seeded were subtracted from the signals. Inhibition concentrations 50% (IC50) were derived by plotting the inhibition of cell proliferation at different concentrations of the prodrug and non-linear curve fitting.
# [1] = tumor bearing mice, half of the MTD; cited from earlier work
# [2] = cited from earlier work
# carboxyl esterases [3] = details: mouse plasma; cited from earlier work
# Solubility in water = assay type: physicochemical
# Experimental: For DOX-triazol ester 1 (DOX-mPEG4GA3) about 0.6 mg prodrug dissolve in 1 ml of water whereas for DOX-mPEG7GA3 already 2.5 mg dissolve in 1 ml of water and for DOX-mPEG12GA3 this has reached more than 15 mg in 1 ml of water.
# [4] = has to be administered in a vehicle containing Cremophore EL; cited from earlier work
# carboxyl esterases [5] = details: human plasma; cited from earlier work
# [6] = Hydrolysis of prodrug esters in phosphate buffer pH 7.33, followed by reverse phase TLC; assay type: physicochemical; details: phosphate buffer pH=7.33, room temperature
# Source text: hydrolyze faster than alkyl esters like DOX-mGA3 due to the better leaving ability of the ester group of 1. This is caused by the electron-withdrawing properties of the triazol functionality. Indeed in a phosphate buffer with pH=7.33 it took 24 hrs at room temperature before DOX-mGA3 was completely hydrolyzed. The DOX derivatives of 1 with n=7 or 12 and x=1 (DOX-mPEG7GA3 and DOX-mPEG12GA3) were, nevertheless, already hydrolyzed within 4 hrs under these circumstances.
# The hydrolysis of the DOX esters were qualitatively followed with reverse phase TLC (RP18). With eluens acetonitril/water: 42/58 in a phosphate buffer (KH2PO4/Na2HPO4) of pH=7.33.
# DOX-mGA3 0.29 mg was dissolved in 1 ml of buffer together with some drops of DMSO to keep the DOX-mGA3 dissolved. It took 24 hrs before the starting compound had disappeared.
# In the same way the hydrolysis of DOX-triazol esters 1 (n=, 7 and 12, x=1) were followed for 0.35 mg/ml and 0.45 mg/ml buffer. Both esters were completely hydrolyzed within 4 hrs.
# [7] = no GUS, read-out: IC50 (M) No GUS
# [8] = bovine beta-glucuronidase 10 units/μL, read-out: IC50 (M) with GUS (10 units/μL)
structure (smiles),measurement,setting,value
"COc1cccc2c1C(=O)c1c(O)c3c(c(O)c1C2=O)C[C@@](O)(C(=O)CO)C[C@@H]3O[C@H]1C[C@H](N)[C@H](O)[C@H](C)O1 [DOX, doxorubicin, reference compound]",maximum tolerated dose (MTD),tumor bearing mice,8 mg/kg
same,IC50,OVCAR-3 cells; [7],6.19e-08 M
COc1cccc2c1C(=O)c1c(O)c3c(c(O)c1C2=O)CC(O)(C(=O)CO)CC3OC1CC(NC(=O)OCc2ccc(NC(=O)OC3OC(C(=O)O)C(O)C(O)C3O)cc2)C(O)C(C)O1 (centres unmarked) [DOX-GA3],concentrations of doxorubicin in plasma versus administration of doxorubicin,[1],significantly lower concentrations of doxorubine in plasma
same,concentrations of doxorubicin in tumor tissue versus administration of doxorubicin,[1],higher
same,maximum tolerated dose (MTD),tumor bearing mice,approximately 500 mg/kg
C=CCOC(=O)C1OC(OC(=O)Nc2ccc(COC(=O)NC3CC(OC4CC(O)(C(=O)CO)Cc5c(O)c6c(c(O)c54)C(=O)c4c(OC)cccc4C6=O)OC(C)C3O)cc2)C(O)C(O)C1O (centres unmarked) [DOX-alGA3],IC50,OVCAR-3 cells; [8],5.84e-08 M
same,IC50,OVCAR-3 cells; [7],9.81e-06 M
same,toxicity compared with doxorubicin,OVCAR-3 cells,comparable toxicity as doxorubicin
COC(=O)C1OC(OC(=O)Nc2ccc(COC(=O)NC3CC(OC4CC(O)(C(=O)CO)Cc5c(O)c6c(c(O)c54)C(=O)c4c(OC)cccc4C6=O)OC(C)C3O)cc2)C(O)C(O)C1O (centres unmarked) [DOX-mGA3],pharmacokinetics in mice (in words),[2],improved pharmacokinetics
same,half time of conversion to DOX-GA3,carboxyl esterases [3],approximately 05 min
same,solubility in water (in words),Solubility in water,completely insoluble in water
same,"solubility in water (in words, background)",[4],very bad solubility in water
same,half time of conversion to DOX-GA3,carboxyl esterases [5],~2.5 h
same,time until completely hydrolyzed,[6],24 h
COCCOCCOCCOCCn1cc(COC(=O)C2OC(OC(=O)Nc3ccc(COC(=O)NC4CC(OC5CC(O)(C(=O)CO)Cc6c(O)c7c(c(O)c65)C(=O)c5c(OC)cccc5C7=O)OC(C)C4O)cc3)C(O)C(O)C2O)nn1 (centres unmarked) [DOX-mPEG4-GA3],solubility in water,Solubility in water,about 0.6 mg in 1 ml of water
same,IC50,OVCAR-3 cells; [8],6.21e-08 M
same,IC50,OVCAR-3 cells; [7],2.21e-05 M
same,toxicity compared with doxorubicin,OVCAR-3 cells,comparable toxicity as doxorubicin
COCCOCCOCCOCCOCCOCCOCCn1cc(COC(=O)C2OC(OC(=O)Nc3ccc(COC(=O)NC4CC(OC5CC(O)(C(=O)CO)Cc6c(O)c7c(c(O)c65)C(=O)c5c(OC)cccc5C7=O)OC(C)C4O)cc3)C(O)C(O)C2O)nn1 (centres unmarked) [DOX-mPEG7-GA3],solubility in water,Solubility in water,2.5 mg in 1 ml of water
same,IC50,OVCAR-3 cells; [8],7.74e-08 M
same,IC50,OVCAR-3 cells; [7],8.33e-06 M
same,toxicity compared with doxorubicin,OVCAR-3 cells,slightly less toxic
COCCOCCOCCOCCOCCOCCOCCOCCOCCOCCOCCOCCn1cc(COC(=O)C2OC(OC(=O)Nc3ccc(COC(=O)NC4CC(OC5CC(O)(C(=O)CO)Cc6c(O)c7c(c(O)c65)C(=O)c5c(OC)cccc5C7=O)OC(C)C4O)cc3)C(O)C(O)C2O)nn1 (centres unmarked) [DOX-mPEG12GA3],solubility in water,Solubility in water,more than 15 mg in 1 ml of water
